Laboratory results reported in patent publication US8709440B2, “Agent for expelling parasites in humans, animals or birds” (Momentum Animal Cure BVBA, priority 2009, dated 2014).

The molecules below were run on helminths that were resistant to ivermectine, pyrantel, praziquantel and moxidectine (assay: Treatment of Horse 4 severely infected with resistant parasites). Settings: Horse 4 severely infected with parasites.
Type: in vivo
Method: Horse 4 was treated with 38 g Asafoetida powder with Arabic gum mixed in milk and with cereal.

**Q.** How did the “result of several treatments” value turn out when `CO/N=C1\C[C@]2(C[C@@H]3C[C@@H](C/C=C(\C)C[C@@H](C)/C=C/C=C4\CO[C@@H]5[C@H](O)C(C)=C[C@@H](C(=O)O3)[C@]45O)O2)O[C@H](/C(C)=C/C(C)C)[C@H]1C` [moxidectine] was run?
**A.** Its value is “had no result”.

**Q.** `O=C(C1CCCCC1)N1CC(=O)N2CCc3ccccc3C2C1` (stereo not shown) [praziquantel] was tested. Which “result of several treatments” value did it give?
**A.** Its value is “had no result”.

**Q.** Which “result of several treatments” value does the source give for `CN1CCCN=C1/C=C/c1cccs1` [pyrantel] here?
**A.** The value was “had no result”.

**Q.** With ivermectine as the molecule, how does the “result of several treatments” value read?
**A.** The value was “had no result”.
